Data: patent publication US11629136B1, “Substituted pyridine derivatives as SARM1 inhibitors” (Nura Bio, Inc., priority 2021, dated 2023)
Where two headings read alike, the source gives them in different places.

Target: human SARM1(50-724) (Homo sapiens (Human), UniProt Q6SZW1)
Experiment: SARM1 NAD hydrolase biological assay (HPLC readout of NAD and NAM peak areas)
Format: biochemical
Settings: 40 nM human SARM1(50-724), 0.3 mM NMN, 20 μM NAD, 60 minutes at room temperature, read-out: Average IC50
Method: The reaction was incubated at room temperature for 60 minutes and quenched with 20 μL of 0.4% formic acid. […] Total run time for each sample was 4 minutes. The run was isocratic with 1.5% methanol in 40 mM ammonium acetate pH 6.0. Samples were run at a flow rate of 0.8 ml/min at 55° C. Peak areas of NAD and NAM were determined using OpenLAB CDS (Chem Station edition) software. For dose-response, the compound was diluted serially 1:3 in DMSO and added to the reaction starting at a final compound concentration of 100 μM in 1% DMSO.

Chain of human SARM1(50-724) (Q6SZW1 50-724): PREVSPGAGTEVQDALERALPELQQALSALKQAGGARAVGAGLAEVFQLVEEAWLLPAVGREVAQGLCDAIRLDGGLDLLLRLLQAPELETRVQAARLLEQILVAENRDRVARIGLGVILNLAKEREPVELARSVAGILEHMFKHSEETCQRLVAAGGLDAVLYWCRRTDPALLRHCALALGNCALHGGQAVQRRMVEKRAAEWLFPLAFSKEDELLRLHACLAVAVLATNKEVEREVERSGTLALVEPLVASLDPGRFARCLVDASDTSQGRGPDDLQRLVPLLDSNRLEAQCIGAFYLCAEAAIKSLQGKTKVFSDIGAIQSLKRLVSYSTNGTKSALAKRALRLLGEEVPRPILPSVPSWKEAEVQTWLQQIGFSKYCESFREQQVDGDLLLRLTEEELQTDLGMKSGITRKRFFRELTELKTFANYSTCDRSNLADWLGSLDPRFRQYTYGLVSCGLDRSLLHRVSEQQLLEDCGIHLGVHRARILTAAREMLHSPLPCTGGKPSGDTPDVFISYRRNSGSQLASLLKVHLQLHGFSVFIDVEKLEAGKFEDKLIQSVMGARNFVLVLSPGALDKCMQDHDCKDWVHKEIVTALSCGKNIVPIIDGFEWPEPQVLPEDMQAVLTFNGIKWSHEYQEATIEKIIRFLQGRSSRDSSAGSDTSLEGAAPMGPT

Row | Structure (SMILES) | IC50 (class symbols) [µM] | IC50 (given as numeric bound) [µM]
1 | C[C@@](O)(c1ncc(Cc2ccncc2)[nH]1)C(F)(F)F (single isomer, unassigned) [Example 32] | < 1 | 
2 | O[C@H](c1ncc(Cc2ccncc2)[nH]1)c1nccs1 (single isomer, unassigned) [Example 31] |  | > 50
3 | Cc1cnccc1Cc1cnc([C@@H](O)c2cncs2)[nH]1 (single isomer, unassigned) [Example 30a] | 1 to 10 | 
